Source: patent US9181309B1, “Peptide regulation of maize defense responses” (The United States of America, as represented by the …, priority 2011, dated 2015)

Legend:
Type in all cases: in vivo, Zea mays
[1] = test system: volatile emission from maize leaves; assay: Volatile collection and GC analysis of emitted volatiles from excised maize leaves
Procedure: Volatiles were collected by a previously described method (Schmelz et al., Planta. 214:171, 2001). Briefly, excised leaves were placed in glass cylinders (Analytical Research Systems, Gainesville, Fla., USA) and maintained under their original lighting conditions. Clean, humidified air was passed through the cylinders (550 ml/min) and the leaf-emitted volatiles were trapped on 50 mg Super Q (80/100 mesh; Alltech, Deerfield, Ill., USA) for 30 minutes. Super Q traps were eluted with 150 μl methylene chloride with 400 ng of nonyl acetate added as an internal standard. At least three leaf replicates were used for each treatment. Volatiles were analyzed by gas chromatography-mass spectrometry (GC-MS) using an Agilent (Agilent Technologies, Inc., Santa Clara, Calif.) 7890A gas chromatograph (carrier gas; He at 1.2 ml min^−1; splitless injector, temperature 220° C., injection volume 1 μl) with an DB-1MS column (100% Dimethylpolysiloxane; 15 m long, 250 μm i.d., 0.1 μm film thickness). Temperatures were programmed from 40° C. (0.5 min hold) at 12° C. min^−1 to 180° C. then 220° C. (2.0 min hold for the post run). Signals were captured with a flame ionization detector (250° C.). The GC was coupled to an HP 5973 quadrupole-type mass selective detector with transfer line, source, and quadrupole temperatures of 230° C., 230° C. and 150° C., respectively. […] Volatile compounds were identified by comparison of retention times with authentic standards and by comparison of mass spectra with Wiley and NIST libraries.

maize leaf transcripts = assay: Microarray analysis of transcript levels in ZmPep3 vs water-treated leaves; conditions: leaves treated for 12 h
From the text: The gene transcripts shown in FIG. 4 are a subset of the defense-related genes found to be induced by ZmPEP3 peptide in the excised leaf assays. Including these, a total of twenty genes have been identified as ZmPEP3-responsive. All can be classified as pertaining to four broad categories of defense-related genes; those encoding proteins that are directly antimicrobial, those encoding proteins that synthesize secondary metabolites associated with defense, those encoding proteins that are involved in reactive oxygen species-based signal transduction and detoxification, and those that encode biosynthetic proteins for the two main plant small molecule hormone regulators of defense, ethylene and oxylipins. To obtain a more global perspective of gene expression regulated by ZmPEP3, a microarray experiment was performed to compare expression levels in ZmPEP3 vs. water-treated leaves after […]. […] In FIG. 7, real-time quantification of expression levels of genes associated with direct and indirect herbivore defenses confirms that ZmPEP3 is a strong regulator of both defense responses. […] FIG. 8 lists defense-associated genes discovered to be induced by the ZmPEP3.
A microarray analysis of transcript levels in leaves that were treated for 12 h with either water or ZmPep3 was employed to better characterize the breadth of ZmPep3-regulated responses. […]

[2] = test system: defense-related genes in excised maize leaves; assay: Excised leaf bioassay, semi-quantitative RT-PCR of defense marker genes
Procedure: Over a 16.5 hour time-course, excised maize leaves were supplied with either a solution of ZmPEP3 peptide or with a water control. Based on the average volume of ZmPEP3 solution taken up by the maize leaves, each leaf was exposed to around 1.8 nMols of peptide per gram of leaf material over the time course study. Zero hour treatments indicate leaves that were immediately harvested at the beginning of the study; the other time points refer to hours elapsed after leaves were excised and placed into solution. As a control to observe herbivory-induced expression of these genes, a timecourse of exposure to herbivory by Spodoptera frugiperda (fall armyworm, FAW) was performed for comparison. As described in the Material and Methods, when using the semi-quantitative RT-PCR analysis technique, observed band intensity is indicative of initial transcript abundance in a sample, thus bands of greater intensity represent sample with enriched transcript abundance.
Maize tissues that had been harvested and frozen in liquid nitrogen were ground to a fine powder using a porcelain mortar and pestle. Approximately 100 mg of frozen powdered plant material was transferred to a 2 mL microcentrifuge tubes to which 1 mL of Trizol reagent (Invitrogen, Carlsbad Calif.) was added. RNA isolation was performed as per the Trizol instructions, supplemented by an acid:phenol:chloroform partitioning step to minimize contaminating DNA. RNA was solublized in 50 μL diethylpyrocarbonate (DEPC)-treated water. RNA yield was quantified by measuring the A260, and the samples were stored at −20° C.
RNA was reverse transcribed using all components from the RETROscript kit (Ambion, Austin Tex.). The 20 μL reverse transcription reactions were assembled as per kit instructions The reverse transcription reaction was allowed to proceed for one hour at 44° C., followed by a ten minute incubation at 92° C.
Semi-quantitative RT-PCR reactions were assembled as follows: 1.2 μL of the cDNA generated in the reverse transcription reactions was used as template for 25 μL PCR reactions. Each reaction contained Platinum 10×PCR buffer (Invitrogen, Carlsbad Calif.) and the final concentration of Mg^2+ and dNTPs were 1.5 mM and 200 μM, respectively. Platinum Taq polymerase (Invitrogen, Carlsbad Calif.) was added at 0.5 units per reaction, while primers were used at 0.4 μM each. All primers were designed to for an annealing temperature of 56° C., to amplify a product of 250 to 350 base pairs and to span introns when possible. The ZmActin1 gene transcript (GenBank# J01238) has been described in the literature as an effective housekeeping control transcript for the study of maize defense gene expression (Erb et al., 2009), and was therefore used to permit comparisons of relative transcript abundance from sample to sample. Genes to be analyzed for responsiveness to ZmPep3 were all shown in previous work to be associated with either pathogen or herbivore resistance (Erb et al., Plant J 59: 292, 2009; Doehlemann et al., Plant J. 56:181, 2008; Köliner et al., Plant Cell 20: 482, 2008; Chen et al., Phytopathology 94:938, 2004; Chen et al., Phytopathology 97:1094, 2007; Schnee et al., Plant Physiol 130: 2049, 2002; Frey et al., Proc Natl Acad Sci USA. 97:14801, 2000).

[3] = later time points, vs water-supplied leaves

ZmPEP3: 23 amino acid maize plant elicitor peptide TRTPPWPPCPPEEGSGGNGGSHN (SEQ ID NO: 3) (Zea mays)
increase in total defense volatile emission compared to water-supplied leaves ([1]; 1.8 nMol peptide per gram of leaf material): 91%
volatile profile vs water-supplied leaves ([1]; 18 or 180 fMols of peptide per gram of leaf, 30 minutes collection): almost the same as leaves supplied with water
lowest concentration with significant increases in defense volatile emission ([1]; 30 minutes collection): 1.8 pMol ZmPEP3 peptide per gram of leaf material
profile of volatile compounds emitted in thirty minutes ([1]; GC, vs water-supplied leaves): Many molecules are detected
difference in terpenes emitted, ZmPep3 versus Gln-18:3 ([1]; equivalent molar concentrations): no significant quantitative difference
indole emission relative to damage alone ([1]; in vivo): increased above damage alone
spectrum of elicited volatile components compared with S. exigua herbivory ([1]; in vivo): same spectrum of volatile components
increase in DMNT emission over water-treated leaves ([1]; six hour period): 6 fold
increase in alpha-bergamotene emission over water-treated leaves ([1]; six hour period): over a thousand fold
increase in beta-caryophyllene emission over water-treated leaves ([1]; six hour period): over 100 fold
increase in beta-farnesene emission over water-treated leaves ([1]; six hour period): over 900 fold
increase in indole emission over water-treated leaves ([1]; six hour period): over 100 fold
increase in nerolidol emission over water-treated leaves ([1]; six hour period): 360 fold
BX1 and BX2 microarray probe sets (maize leaf transcripts): upregulated
SerPIN probe set in microarray (maize leaf transcripts): most highly upregulated probe set
number of defense-related genes identified as ZmPEP3-responsive ([2]; excised leaf assays): twenty
time at which AOS transcript increases in abundance ([2]; excised leaves, around 1.8 nMols of peptide per gram of leaf): 2 h
endochitinase A transcript levels ([2]; excised leaves, around 1.8 nMols of peptide per gram of leaf, early time points, vs water): increased transcript levels at all early time points
IGL expression ([2]; later time points): strongly induced
AOS transcript levels [2, 3]: markedly increased
TPS23 transcript abundance [2, 3]: increased greatly
peroxidase transcript accumulation ([2]; later timepoints, not detectable in water-supplied leaves): marked induction of transcript accumulation
